Reference: publication PMC11865982, “Structure–Activity Relationships and Biological Insights into PSMA-617 and Its Derivatives with Modified Lipophilic Linker Regions” (ACS Omega, 2025)

Experiments:
recombinant human PSMA = molecular target: T1, recombinant human PSMA (Homo sapiens, UniProt Q04609); assay: HPLC-based PSMA enzyme inhibition assay with fluorescein-γ-Glu-Glu substrate; type: biochemical; settings: 20 pM recombinant human PSMA, 100 nM substrate, 37 °C; average ± SD (n = 3)
T1 construct: extracellular part of human PSMA (amino acids 44–750); made in house; host or cells: Drosophila Schneider's S2 cells (secreted into conditioned medium)
T1 sequence (Q04609 44-750): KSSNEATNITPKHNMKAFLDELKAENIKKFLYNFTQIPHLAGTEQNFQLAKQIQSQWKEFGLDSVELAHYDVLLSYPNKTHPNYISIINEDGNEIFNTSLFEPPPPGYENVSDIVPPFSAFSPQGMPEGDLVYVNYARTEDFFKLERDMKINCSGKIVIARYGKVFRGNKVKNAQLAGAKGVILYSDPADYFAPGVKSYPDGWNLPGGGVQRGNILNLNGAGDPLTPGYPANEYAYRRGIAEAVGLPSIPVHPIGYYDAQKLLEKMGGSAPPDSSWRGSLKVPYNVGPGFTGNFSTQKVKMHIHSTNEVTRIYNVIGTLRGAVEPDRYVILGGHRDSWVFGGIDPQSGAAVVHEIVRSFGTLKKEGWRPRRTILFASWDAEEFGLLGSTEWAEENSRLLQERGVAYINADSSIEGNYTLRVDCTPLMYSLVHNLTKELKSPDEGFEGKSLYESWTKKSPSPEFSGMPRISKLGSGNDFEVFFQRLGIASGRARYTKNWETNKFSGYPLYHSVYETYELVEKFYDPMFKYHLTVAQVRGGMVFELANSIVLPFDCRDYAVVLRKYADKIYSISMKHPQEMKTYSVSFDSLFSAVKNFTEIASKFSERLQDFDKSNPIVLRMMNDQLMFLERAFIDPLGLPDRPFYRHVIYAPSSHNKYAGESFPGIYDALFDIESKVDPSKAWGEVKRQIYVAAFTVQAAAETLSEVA
Method: The potency of the studied inhibitors against recombinant human PSMA was determined in vitro using an HPLC-based assay with fluorescein−γ-Glu–Glu as the substrate.[11]
Expression and purification of the extracellular part of human PSMA (amino acids 44–750) were performed essentially as described previously.[27] Briefly, the N-terminally tagged PSMA fusion was overexpressed in Schneider’s S2 cells and the conditioned medium concentrated and dialyzed by tangential flow filtration (Millipore, Mosheim, France).
The inhibitory potency was determined using a fluorescence-based assay described previously.[11] Briefly, 20 pM recombinant human PSMA was preincubated with a 3-fold dilution series of inhibitors in 50 mM Tris.HCl, 150 mM NaCl, and 0.001% C12 E8 for 10 min at 37 °C. The reaction was initiated by the addition of 100 nM substrate in a total volume 50 μL. Following 15 min incubation at 37 °C, the reaction was stopped by the addition of 50 μL of 0.1% TFA in 5% ACN. Reaction mixtures were analyzed by RP-HPLC (Shimadzu, HPLC Prominence system) equipped with a Kinetex 2.6 μm XB-C18 100 Å column and a fluorescence detector (λEX/λEM = 492/516). HPLC separation was performed using a linear solvent gradient over 11 min from 20 to 50% of eluent B (0.1% (v/v) TFA in ACN) at a flow rate of 0.6 mL/min. The mobile phase A was 0.1% (v/v) TFA in water. The noninhibited reaction was assigned 100% and the reaction without enzyme present was defined as 0%. Data were fitted using a nonlinear regression algorithm (GraphPad Prism Software, version 8) to calculate IC50 values from the inhibition curves. Three independent assays were performed for each compound.

[1] = molecular target: T2, PSMA-positive LNCaP cell line (Homo sapiens, UniProt Q04609); assay: Competitive cell-binding affinity assay against [177Lu]Lu-PSMA-617, LNCaP; settings: competition with 0.75 nM [177Lu]Lu-PSMA-617, 45 min RT; average ± SD (n = 3)
T2 construct: native LNCaP and LNCaP-derived C4-2 cell lines; host or cells: LNCaP
T2 sequence (Q04609 whole entry): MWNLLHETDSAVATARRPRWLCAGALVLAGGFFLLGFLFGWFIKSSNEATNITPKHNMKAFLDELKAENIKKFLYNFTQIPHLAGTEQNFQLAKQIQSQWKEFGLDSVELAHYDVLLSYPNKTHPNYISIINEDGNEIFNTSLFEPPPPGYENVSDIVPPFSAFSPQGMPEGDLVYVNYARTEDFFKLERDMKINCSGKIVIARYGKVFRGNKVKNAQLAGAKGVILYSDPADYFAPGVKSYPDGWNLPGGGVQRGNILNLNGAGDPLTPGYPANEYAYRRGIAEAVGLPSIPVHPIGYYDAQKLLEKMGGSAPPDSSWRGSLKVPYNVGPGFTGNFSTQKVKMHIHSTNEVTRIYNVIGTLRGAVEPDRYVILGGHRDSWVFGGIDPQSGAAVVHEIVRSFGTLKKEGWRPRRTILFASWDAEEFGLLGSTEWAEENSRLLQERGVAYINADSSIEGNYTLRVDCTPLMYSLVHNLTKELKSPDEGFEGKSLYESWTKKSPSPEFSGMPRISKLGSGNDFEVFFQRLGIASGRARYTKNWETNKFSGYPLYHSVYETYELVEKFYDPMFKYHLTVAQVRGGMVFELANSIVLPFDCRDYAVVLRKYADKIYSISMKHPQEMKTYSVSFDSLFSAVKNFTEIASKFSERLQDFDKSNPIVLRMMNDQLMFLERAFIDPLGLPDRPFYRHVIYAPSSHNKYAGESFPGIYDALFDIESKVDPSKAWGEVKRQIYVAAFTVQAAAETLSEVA
Method: (§1) To validate the IC50 values determined by the in vitro enzymatic assay, the PSMA-expressing cell line LNCaP, its daughter cell line C4-2, and the PSMA-overexpressing cell line PC-3 PIP were utilized to compare the cell-binding affinities of P17 and P18 to PSMA-617. The IC50 values of P17 and P18 were assessed by competitive binding against [^177Lu]Lu-PSMA-617. […] For the transfected cell line PC-3 PIP, the IC50 values for all three compounds were determined to be approximately 10-fold higher.
(§2) Cell culture media and supplements were purchased from PAN Biotech if not stated otherwise. In vitro assays were performed using the sublines of the androgen-independent PC3 human PCa cell line, PSMA-positive (PSMA+) PC3-PIP and PSMA-negative (PSMA−) PC3-flu cells, purchased from Johns Hopkins University (Baltimore, […], USA). Both cell lines were housed in a humidified atmosphere of 5% CO2 at 37 °C and cultured in RPMI-1640 medium supplemented with 10% fetal calf serum (FCS), 1% L-glutamine (L-Gln), and puromycin (2 μg/mL). In addition, cell-binding affinity assays were also performed on PSMA + LNCaP (ATCC CRL-1740) and C4-2 (ATCC CRL-3314) cell lines. LNCaP was derived from a human lymph node metastatic lesion of PCa while C4-2 was isolated from an LNCaP-based tumor xenograft of an androgen-depleted mouse. Both cell lines were cultured as described above but in the absence of puromycin. Routine cell culture was performed twice a week at RT using phosphate-buffered saline (PBS, pH 7.4) for washing and 0.05% trypsin for cell detachment.
(§3) The binding affinities of PSMA-617, P17, and P18 were determined using a competitive assay with [^177Lu]Lu-PSMA-617. All three compounds were incubated at 12 different concentrations (0, 0.5, 1, 2.5, 5, 10, 25, 50, 100, 500, 1,000, and 5000 nM) with 0.75 nM [^177Lu]Lu-PSMA-617 on either PSMA + cell lines PC3-PIP, LNCaP, or C4-2 or the PSMA– cell line PC3-flu plated at a concentration of 10^6 cells/well. After 45 min incubation at RT, the radioligand was removed and cells washed twice with 100 μL and once with 200 μL ice-cold PBS. […]

[2] = molecular target: T3, PSMA-positive C4-2 cell line (Homo sapiens, UniProt Q04609); assay: Competitive cell-binding affinity assay against [177Lu]Lu-PSMA-617, C4-2; settings: competition with 0.75 nM [177Lu]Lu-PSMA-617, 45 min RT; average ± SD (n = 3)
T3 construct: native LNCaP and LNCaP-derived C4-2 cell lines; host or cells: C4-2
T3 sequence (Q04609 whole entry): as above
Method: as §1, §2, §3

[3] = molecular target: T4, PSMA-overexpressing PC-3 PIP cell line (Homo sapiens, UniProt Q04609); assay: Competitive cell-binding affinity assay against [177Lu]Lu-PSMA-617, PC3-PIP; settings: competition with 0.75 nM [177Lu]Lu-PSMA-617, 45 min RT; average ± SD (n = 3)
T4 construct: host or cells: PC3-PIP (subline of the human PC3 prostate cancer line)
T4 sequence (Q04609 whole entry): as above
Method: as §1, §2, §3

PC3-PIP cells = assay: Cellular internalization assay; type: cell-based, human; settings: 30 nM radioligand, 45 min 37 °C, average ± SD (n = 3)
Method: To further characterize P17 and P18, internalization assays were conducted to determine whether the structural modifications of the linker have an impact on the uptake of the inhibitor–enzyme complex into the cell, which is critical for efficient retention in vivo.
as §2
Cells (10^5 cells/well) were seeded in poly-L-lysine (PLL)-coated plates 24 h before the experiment. […] Another set of cells was treated analogically while the PSMA-inhibitor 2-(phosphonomethyl)pentane-1,5-dioic acid (2-PMPA; 100 mM, […]) was added in order to subtract the nonspecific binding. The respective radioligand was removed and cells were washed three times with 1 mL ice-cold PBS and the surface-bound radioactivity detached by incubating the cells twice with 500 μL glycine buffer (50 mM, pH 2.8) for 5 min. After washing the cells once with 1 mL ice-cold PBS, the internalized fraction was determined by subsequent cells lysis with 500 μL NaOH (0.3 M, pH 14). […] Three independent assays were performed.

[4] = n-Octanol/PBS distribution coefficient; type: physicochemical; settings: n-octanol/PBS pH 7.4
[5] = Stability in DMSO solution by 1H NMR; type: physicochemical; settings: several days
Method: Characterization of the compounds was conducted extensively by one-dimensional (1D) ^1H, ^13C, and ^15N NMR (Figures S10–S15) and two-dimensional (2D) spectra, viz. COSY, HSQC, and HMBC (Figures S16–S21). Previous assignments of analogous compounds[5] were also used to provide unequivocal assignment of the ^1H, ^13C, and ^15N signals except for the DOTA macrocyclic ring assignments which could not be effected with certitude due to dynamic effects causing severe line broadening and thereby precluding correlations in the 2D spectra pertinent to the DOTA ring. The dynamic effects arising from the slow motional averaging of the DOTA ring on the NMR time scale leading to severe broadening of the signals of the DOTA ring were alleviated for the ^13C signals by the acquisition of spectra at lower field. Indeed, not all of the signals of the DOTA ring could be observed in the case of ^15N, unequivocally assigned in the case of ^13C, or uniquely discerned in the case of ^1H. However, all other signals though were able to be fully assigned and the spectra were otherwise fully consistent with the proposed structures and for both P17 and P18 the assigned structures were confirmed in terms of proton count, carbon count, and carbon multiplicities. […]

[6] = linker amino acid building block; source not stated; cited from earlier work

SMILES | IC50 (recombinant human PSMA) | IC50 [1] | IC50 [2] | IC50 [3] | internalized (PC3-PIP cells) | total binding (PC3-PIP cells) | log D [4] | other results
O=C(O)CC[C@H](NC(=O)N[C@@H](CCCCNC(=O)[C@H](Cc1ccc2ccccc2c1)NC(=O)[C@H]1CC[C@H](CNC(=O)CN2CCN(CC(=O)O)CCN(CC(=O)O)CCN(CC(=O)O)CC2)CC1)C(=O)O)C(=O)O [PSMA-617] | 0.05 ± 0.03 nM | 6.9 ± 2.2 nM | 4.9 ± 0.9 nM | 71 ± 8 nM |  |  |  | 
O=C([O-])CN1CCN(CC(=O)[O-])CCN(CC(=O)NCc2ccc(C(=O)N[C@@H](C/C=C/c3ccccc3)C(=O)NCCCC[C@H](NC(=O)N[C@@H](CCC(=O)O)C(=O)O)C(=O)O)cc2)CCN(CC(=O)[O-])CC1.[177Lu+3] [[^177Lu]Lu-P18] |  |  |  |  | 8.7 ± 2.9 % AA | 33.7 ± 12.8 % AA | −3.35 ± 0.04 | 
O=C(O)CC[C@H](NC(=O)N[C@@H](CCCCNC(=O)[C@H](C/C=C/c1ccccc1)NC(=O)c1ccc(CNC(=O)CN2CCN(CC(=O)O)CCN(CC(=O)O)CCN(CC(=O)O)CC2)cc1)C(=O)O)C(=O)O [P18] | 0.45 ± 0.09 nM | 11.2 ± 4.8 nM | 9.5 ± 3 nM | 111 ± 9 nM |  |  |  | stability in DMSO solution [5]: no sign of decomposition after several days
N[C@@H](CC=Cc1ccccc1)C(=O)O [3-styryl-L-Ala] |  |  |  |  |  |  |  | log Kow [6]: < 3
O=C([O-])CN1CCN(CC(=O)[O-])CCN(CC(=O)NC[C@H]2CC[C@H](C(=O)N[C@@H](C/C=C/c3ccccc3)C(=O)NCCCC[C@H](NC(=O)N[C@@H](CCC(=O)O)C(=O)O)C(=O)O)CC2)CCN(CC(=O)[O-])CC1.[177Lu+3] [[^177Lu]Lu-P17] |  |  |  |  | 8.5 ± 2.4 % AA | 20.1 ± 9.8 % AA | −3.36 ± 0.05 | 
O=C([O-])CN1CCN(CC(=O)[O-])CCN(CC(=O)NC[C@H]2CC[C@H](C(=O)N[C@@H](Cc3ccc4ccccc4c3)C(=O)NCCCC[C@H](NC(=O)N[C@@H](CCC(=O)O)C(=O)O)C(=O)O)CC2)CCN(CC(=O)[O-])CC1.[177Lu+3] [[^177Lu]Lu-PSMA-617, reference compound] |  |  |  |  | 8.2 ± 2.4 % AA | 26.8 ± 14.2 % AA | −3.27 ± 0.05 | 
N[C@@H](Cc1ccc2ccccc2c1)C(=O)O [2-naphthyl-L-Ala] |  |  |  |  |  |  |  | log Kow [6]: > 3
O=C(O)CC[C@H](NC(=O)N[C@@H](CCCCNC(=O)[C@H](C/C=C/c1ccccc1)NC(=O)[C@H]1CC[C@H](CNC(=O)CN2CCN(CC(=O)O)CCN(CC(=O)O)CCN(CC(=O)O)CC2)CC1)C(=O)O)C(=O)O [P17] | 0.3 ± 0.04 nM | 12.9 ± 0.4 nM | 15.5 ± 2.5 nM | 150 ± 30 nM |  |  |  | stability in DMSO solution [5]: no sign of decomposition after several days
